Test results from PubChem BioAssay AID1963846 (Molecular Pharmacology Branch, DTP, NCI, 2024).

System: 454973-116-R2-J3-PDC complex spheroid viability
Assay: Anticancer human tumor 454973-116-R2-J3-PDC patient-derived pancreatic carcinoma cell line growth inhibition [POLQ]
Conditions: for IC50: curve of first compound; for viability, T/C: stronger effect = lower value
Summary of the method: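 Three-cell-type spheroids modelling solid tumor plus stroma served as the readout system; POL inhibitors were tested individually and in combination, concentration ranges set by clinical Cmax where known.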

[1] = second compound 0.0316 µM, first compound 0.0316 µM
[2] = second compound 0.0316 µM, first compound 0.1 µM
[3] = second compound 0.0316 µM, first compound 0.316 µM
[4] = second compound 0.0316 µM, first compound 1 µM
[5] = second compound 0.0316 µM, first compound 3.16 µM
[6] = second compound 0.0316 µM, first compound 10 µM
[7] = second compound 0.1 µM, first compound 0.0316 µM
[8] = second compound 0.1 µM, first compound 0.1 µM
[9] = second compound 0.1 µM, first compound 0.316 µM
[10] = second compound 0.1 µM, first compound 1 µM
[11] = second compound 0.1 µM, first compound 3.16 µM
[12] = second compound 0.1 µM, first compound 10 µM
[13] = second compound 0.316 µM, first compound 0.0316 µM
[14] = second compound 0.316 µM, first compound 0.1 µM
[15] = second compound 0.316 µM, first compound 0.316 µM
[16] = second compound 0.316 µM, first compound 1 µM
[17] = second compound 0.316 µM, first compound 3.16 µM
[18] = second compound 0.316 µM, first compound 10 µM
[19] = second compound 1 µM, first compound 0.0316 µM
[20] = second compound 1 µM, first compound 0.1 µM
[21] = second compound 1 µM, first compound 0.316 µM
[22] = second compound 1 µM, first compound 1 µM
[23] = second compound 1 µM, first compound 3.16 µM
[24] = second compound 1 µM, first compound 10 µM
[25] = second compound 3.16 µM, first compound 0.0316 µM
[26] = second compound 3.16 µM, first compound 0.1 µM
[27] = second compound 3.16 µM, first compound 0.316 µM
[28] = second compound 3.16 µM, first compound 1 µM
[29] = second compound 3.16 µM, first compound 3.16 µM
[30] = second compound 3.16 µM, first compound 10 µM
[31] = second compound 10 µM, first compound 0.0316 µM
[32] = second compound 10 µM, first compound 0.1 µM
[33] = second compound 10 µM, first compound 0.316 µM
[34] = second compound 10 µM, first compound 1 µM
[35] = second compound 10 µM, first compound 3.16 µM
[36] = second compound 10 µM, first compound 10 µM
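Note: spheroids exposed to drugs for seven days before measurement.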
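Throughout, for viability, T/C: percent viability relative to DMSO vehicle control wells taken as 100%.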

CCc1cc2c(N3CCc4c(cc(Cn5ccnc5)cc4-c4cn(C)nc4C(F)(F)F)C3=O)cc(C)nc2c(OC)n1 + Cc1cccc(N(C)C(=O)C2C(O)CCN2c2nc(C)cc(C(F)(F)F)c2C#N)c1
IC50 (second compound 0.0316 µM): > 10 µM | IC50 (second compound 0.1 µM): > 10 µM | IC50 (second compound 0.316 µM): > 10 µM | IC50 (second compound 1 µM): > 10 µM | IC50 (second compound 3.16 µM): > 10 µM | IC50 (second compound 10 µM): > 10 µM | viability, T/C [1]: 94.7% | viability, T/C [2]: 84.6% | viability, T/C [3]: 87.3% | viability, T/C [4]: 75.5% | viability, T/C [5]: 76.5% | viability, T/C [6]: 56.9% | viability, T/C [7]: 92.7% | viability, T/C [8]: 99.2% | viability, T/C [9]: 80.7% | viability, T/C [10]: 80.1% | viability, T/C [11]: 74.6% | viability, T/C [12]: 60.8% | viability, T/C [13]: 93.6% | viability, T/C [14]: 84.5% | viability, T/C [15]: 87.7% | viability, T/C [16]: 76.9% | viability, T/C [17]: 76.3% | viability, T/C [18]: 61.6% | viability, T/C [19]: 100% | viability, T/C [20]: 94% | viability, T/C [21]: 78.4% | viability, T/C [22]: 73.6% | viability, T/C [23]: 70.4% | viability, T/C [24]: 58.6% | viability, T/C [25]: 104% | viability, T/C [26]: 89.3% | viability, T/C [27]: 84.1% | viability, T/C [28]: 74.7% | viability, T/C [29]: 74.4% | viability, T/C [30]: 63.8% | viability, T/C [31]: 88.5% | viability, T/C [32]: 90.2% | viability, T/C [33]: 74.9% | viability, T/C [34]: 71.5% | viability, T/C [35]: 64.9% | viability, T/C [36]: 53.2%

CC(C)n1c(=O)n(C)c2cnc3cc(F)c(-c4ccc(OCCCN5CCCCC5)nc4)cc3c21 + COC1C(OC(N)=O)C(O)C(Oc2ccc3c(O)c(NC(=O)c4ccc(O)c(CC=C(C)C)c4)c(=O)oc3c2C)OC1(C)C
IC50 (second compound 0.0316 µM): > 10 µM | IC50 (second compound 0.1 µM): > 10 µM | IC50 (second compound 0.316 µM): > 10 µM | IC50 (second compound 1 µM): > 10 µM | IC50 (second compound 3.16 µM): > 10 µM | IC50 (second compound 10 µM): > 10 µM | viability, T/C [1]: 99.5% | viability, T/C [2]: 108% | viability, T/C [3]: 114% | viability, T/C [4]: 110% | viability, T/C [5]: 111% | viability, T/C [6]: 85.9% | viability, T/C [7]: 107% | viability, T/C [8]: 112% | viability, T/C [9]: 108% | viability, T/C [10]: 114% | viability, T/C [11]: 93.7% | viability, T/C [12]: 95.6% | viability, T/C [13]: 115% | viability, T/C [14]: 113% | viability, T/C [15]: 113% | viability, T/C [16]: 116% | viability, T/C [17]: 105% | viability, T/C [18]: 88% | viability, T/C [19]: 116% | viability, T/C [20]: 107% | viability, T/C [21]: 115% | viability, T/C [22]: 112% | viability, T/C [23]: 100% | viability, T/C [24]: 93.8% | viability, T/C [25]: 118% | viability, T/C [26]: 107% | viability, T/C [27]: 112% | viability, T/C [28]: 116% | viability, T/C [29]: 106% | viability, T/C [30]: 92.5% | viability, T/C [31]: 120% | viability, T/C [32]: 103% | viability, T/C [33]: 101% | viability, T/C [34]: 107% | viability, T/C [35]: 101% | viability, T/C [36]: 84.9%

CNCc1ccc(-c2[nH]c3cc(F)cc4c3c2CCNC4=O)cc1 + COC1C(OC(N)=O)C(O)C(Oc2ccc3c(O)c(NC(=O)c4ccc(O)c(CC=C(C)C)c4)c(=O)oc3c2C)OC1(C)C
IC50 (second compound 0.0316 µM): > 10 µM | IC50 (second compound 0.1 µM): > 10 µM | IC50 (second compound 0.316 µM): > 10 µM | IC50 (second compound 1 µM): > 10 µM | IC50 (second compound 3.16 µM): > 10 µM | IC50 (second compound 10 µM): > 10 µM | viability, T/C [1]: 99.4% | viability, T/C [2]: 115% | viability, T/C [3]: 98.6% | viability, T/C [4]: 106% | viability, T/C [5]: 104% | viability, T/C [6]: 92% | viability, T/C [7]: 98.2% | viability, T/C [8]: 103% | viability, T/C [9]: 103% | viability, T/C [10]: 104% | viability, T/C [11]: 106% | viability, T/C [12]: 89.1% | viability, T/C [13]: 102% | viability, T/C [14]: 113% | viability, T/C [15]: 100% | viability, T/C [16]: 105% | viability, T/C [17]: 95.8% | viability, T/C [18]: 87.8% | viability, T/C [19]: 106% | viability, T/C [20]: 99% | viability, T/C [21]: 101% | viability, T/C [22]: 98.7% | viability, T/C [23]: 97.8% | viability, T/C [24]: 88% | viability, T/C [25]: 112% | viability, T/C [26]: 104% | viability, T/C [27]: 101% | viability, T/C [28]: 98.8% | viability, T/C [29]: 99.3% | viability, T/C [30]: 87.5% | viability, T/C [31]: 103% | viability, T/C [32]: 97.3% | viability, T/C [33]: 92.8% | viability, T/C [34]: 98.3% | viability, T/C [35]: 92% | viability, T/C [36]: 85.1%
